Here are results for 53 compounds from ChEMBL document CHEMBL5724581, “Toxicity screen in purified B cell assay results for EUbOPEN Chemogenomics Library” (2024).

Each structure is given as a SMILES string. Where “and” joins values, the source holds several entries; their conditions need not be identical. Equal entries are not always repeated. Bridge positions count the residues as written; N and C are the ends. Square brackets hold non-standard residues; d marks the D form. Peptide text beside a SMILES is read from it. * marks the point of attachment. dPhe(4-NHCONH2) = NC(=O)Nc1ccc(C[C@@H](N)C(=O)O)cc1; Dihydroorotyl(S) = O=C1C[C@@H](C(=O)*)NC(=O)N1; dPhe(4-Cl) = N[C@H](Cc1ccc(Cl)cc1)C(=O)O; Phe(4-NH2) = Nc1ccc(C[C@H](N)C(=O)O)cc1; d2Nal = N[C@H](Cc1ccc2ccccc2c1)C(=O)O; Lys(iPr) = CC(C)NCCCC[C@H](N)C(=O)O; d3Pal = N[C@H](Cc1cccnc1)C(=O)O; Orn = NCCC[C@H](N)C(=O)O; Mpa = O=C(O)CCS

This data set concerns B cell. The data set is described as follows: Cytotoxicity screening of chemical probes in isolated B cell assay. Data is normalized to DMSO control, the cell viability average of replicates are reported. Reduction of ATP level more than 20% indicate compromised cell health status. The following applies: human, 1 µM.
With `CCOc1nc2cccc(C(=O)O)c2n1Cc1ccc(-c2ccccc2-c2nnn[nH]2)cc1`, the “Cell Viability” value is on record as 98.0011%.

Consider `CCCCC(=O)N(Cc1ccc(-c2ccccc2-c2nnn[nH]2)cc1)[C@H](C(=O)O)C(C)C`, for which the “Cell Viability” value is on record as 98.0011%.

`CC1(C)[C@H]2C[C@H](C/C=C\CCCC(=O)O)[C@@H](NC(=O)c3csc4ccc(O)cc34)[C@@H]1C2`: the “Cell Viability” value came to 98.0011%.

For the compound `COCCn1c(C)c(C)s/c1=N\C(=O)C1C(C)(C)C1(C)C`, the “Cell Viability” value is recorded as 98.0011%.

Consider `CC#C[C@@H](CC(=O)O)c1ccc(OCc2cccc(-c3ccc(C(F)(F)F)cc3)c2)cc1`, for which the “Cell Viability” value is given as 98.0011%.

`Cc1cc(OCCCS(C)(=O)=O)cc(C)c1-c1cccc(COc2ccc3c(c2)OC[C@H]3CC(=O)O)c1`: the “Cell Viability” value stood at 98.0011%.

As for `COc1ccncc1C(=O)NC(=O)Nc1ccc(-c2ccccc2)c(C(F)(F)F)c1`, the “Cell Viability” value worked out at 98.0011%.

As to `COc1cccc2c1c(NS(=O)(=O)c1ccc(Cl)s1)nn2Cc1cccc(CNC(=O)C(C)(C)O)c1`, the “Cell Viability” value stood at 103.681%.

In the case of `O=C(O)c1n[nH]c2c1C[C@H]1C[C@@H]21`, the “Cell Viability” value is listed as 98.0011%.

As for `CCc1nc2c(C)cc(C)nc2[nH]1`, the “Cell Viability” value was 98.0011%.

As to `c1ccc(NCc2ccc(CNc3ccccn3)cc2)nc1`, the “Cell Viability” value was found to be 99.8082%.

For the compound `Cc1nnc(C(=O)NC(C)(C)c2nc(C(=O)NCc3ccc(F)cc3)c(O)c(=O)n2C)o1`, the “Cell Viability” value turned out to be 103.493%.

`CSc1ccc(C(=O)N[C@@H]2CCCC[C@@H]2NC(=O)CNC(=O)c2cc(C(F)(F)F)ccc2NC(=O)NC(C)C)cc1`: the “Cell Viability” value came to 102.032%.

`CSc1cc2c(cc1C(F)(F)F)N(C(=O)Nc1cccnc1)CC2`: the “Cell Viability” value is on record as 98.0011%.

On to `CC[C@H]1OC(=O)[C@H](C)[C@@H](O[C@H]2C[C@@](C)(OC)[C@@H](O)[C@H](C)O2)[C@H](C)[C@@H](O[C@@H]2O[C@H](C)C[C@H](N(C)C)[C@H]2O)[C@@]2(C)CC(C)=C(O2)[C@H](C)[C@@H](O)[C@]1(C)O`, for which the “Cell Viability” value is 98.0011%.

Turning to `Cc1cc(Cn2cnc3c2C[C@@H](C(=O)O)N(C(=O)C(c2ccccc2)c2ccccc2)C3)ccc1N(C)C`, the “Cell Viability” value was 98.0011%.

For the compound `COc1ccc(C(=O)N2CCN(C(=O)/C=C/c3ccc(Br)cc3)CC2)cc1`, the “Cell Viability” value was determined as 98.0011%.

Turning to `Cc1nc[nH]c1CCN.Cl`, the “Cell Viability” value stood at 98.0011%.

For the compound `N#Cc1c(O)nc(SCc2cccc(F)c2F)nc1C1CC1`, the “Cell Viability” value is on record as 104.007%.

On to `Cc1ccc(Cn2nc(C(=O)N[C@@H]3C(C)(C)[C@@H]4CC[C@@]3(C)C4)cc2-c2ccc(Cl)c(C)c2)cc1`, for which the “Cell Viability” value was found to be 98.0011%.

Regarding `N#Cc1ccc(NC(=O)Nc2ccccc2Br)c2nn[nH]c12`, the “Cell Viability” value was determined as 104.304%.

`NS(=O)(=O)c1c(Cl)ccc(NC(=O)Nc2cccc(Cl)c2Cl)c1O`: the “Cell Viability” value is recorded as 102.927%.

As to `COc1cc(C(=O)N(CCCc2ccccc2)Cc2ccc(CC(=O)O)cc2)cc(OC)c1C`, the “Cell Viability” value came to 98.0011%.

As for `C[C@H](CO)Nc1nc(SCc2cccc(Cl)c2F)nc2[nH]c(=O)sc12`, the “Cell Viability” value is reported as 95.8941%.

Turning to `O=C(NCc1ccc(F)cc1)N1CCN2C(=O)OC(c3ccccc3)(c3ccccc3)C2C1` (stereo not drawn), the “Cell Viability” value worked out at 98.0011%.

As to `Cl.O=c1c2cccn2c2ccccc2n1CCCN1CCC(c2ccc(Cl)cc2)CC1`, the “Cell Viability” value was 98.0011% and 103.839%.

Regarding `NC(=O)c1ccc(CNC(=O)NC[C@H]2CN(Cc3ccc(Cl)c(Cl)c3)CCO2)cc1`, the “Cell Viability” value is reported as 98.0011%.

`Nc1nc2c(c(N3CCNCC3)n1)CCC1=C2[C@@H]2CCCC[C@@H]2O1`: the “Cell Viability” value stood at 100.079%.

Consider `CCCn1c(=O)c2[nH]c(C3CCCC3)nc2n(CCC)c1=O` [1,3-DIPROPYL-8-CYCLOPENTYLXANTHINE [DPCPX]], for which the “Cell Viability” value is recorded as 98.0011%.

Regarding `Cc1[nH]cnc1CN1CCc2c(c3ccccc3n2C)C1=O` [ALOSETRON], the “Cell Viability” value was 98.0011%.

Consider `COC(c1ccccc1)(c1ccccc1)[C@H](Oc1nc(C)cc(C)n1)C(=O)O` [AMBRISENTAN], for which the “Cell Viability” value came to 98.0011%.

Take `C[C@@H](O[C@H]1OCCN(Cc2n[nH]c(=O)[nH]2)[C@H]1c1ccc(F)cc1)c1cc(C(F)(F)F)cc(C(F)(F)F)c1` [APREPITANT]: the “Cell Viability” value worked out at 98.0011%.

As to `CCOc1ccc(C[C@H]2NC(=O)CCSSC[C@@H](C(=O)N3CCC[C@H]3C(=O)N[C@@H](CCCN)C(=O)NCC(N)=O)NC(=O)[C@H](CC(N)=O)NC(=O)[C@H]([C@@H](C)O)NC(=O)[C@H]([C@@H](C)CC)NC2=O)cc1` [ATOSIBAN] ([Mpa][dY](Et)ITNCP[Orn]G-NH2; disulfide 1-6), the “Cell Viability” value was determined as 98.0011%.

Turning to `CC(C)C[C@H](CO)Nc1nc(S[C@@H](C)c2ccccc2)nc2nc(N)sc12` [AZD-8797], the “Cell Viability” value is given as 97.9584%.

Consider `CC(C)C[C@@H]1NC(=O)[C@@H](C(C)C)NC(=O)[C@@H]2CCCN2C(=O)[C@@H](CC(=O)O)NC(=O)[C@@H](Cc2c[nH]c3ccccc23)NC1=O` [BQ-123] (cyclo(L[dW][dD]P[dV])), for which the “Cell Viability” value is reported as 98.0011%.

On to `C[C@@H]1CN(Cc2ccc(F)cc2)CCN1C(=O)COc1ccc(Cl)cc1NC(N)=O` [BX 471 FREE BASE], for which the “Cell Viability” value is 98.0011% and 103.598%.

`Cc1c(F)cccc1NC(=O)Nc1ccc(Cl)c(S(=O)(=O)[C@H]2CCCNC2)c1O` [DANIRIXIN]: the “Cell Viability” value was 101.889%.

`CC(=O)N[C@H](Cc1ccc2ccccc2c1)C(=O)N[C@H](Cc1ccc(Cl)cc1)C(=O)N[C@H](Cc1cccnc1)C(=O)N[C@@H](CO)C(=O)N[C@@H](Cc1ccc(NC(=O)[C@@H]2CC(=O)NC(=O)N2)cc1)C(=O)N[C@H](Cc1ccc(NC(N)=O)cc1)C(=O)N[C@@H](CC(C)C)C(=O)N[C@@H](CCCCNC(C)C)C(=O)N1CCC[C@H]1C(=O)N[C@H](C)C(N)=O` [DEGARELIX] (Ac-[d2Nal][dPhe(4-Cl)][d3Pal]S[Phe(4-NH2)](Dihydroorotyl(S))[dPhe(4-NHCONH2)]L[Lys(iPr)]P[dA]-NH2): the “Cell Viability” value amounted to 98.0011%.

As to `O=C(O)Cc1ccccc1Nc1c(Cl)cccc1Cl` [DICLOFENAC], the “Cell Viability” value is 98.0011% and 91.1433%.

Consider `C[C@]12N[C@H](Cc3ccccc31)c1ccccc12` [DIZOCILPINE], for which the “Cell Viability” value is recorded as 98.0011%.

With `O=S(=O)(c1ccccc1)c1cnc2c(N3CCNCC3)cccc2c1` [INTEPIRDINE], the “Cell Viability” value turned out to be 98.0011%.

For the compound `c1cc(OCCCN2CCCCC2)ccc1CN1CCCCC1` [JNJ-5207852], the “Cell Viability” value turned out to be 98.0011%.

Regarding `CCNC1(C(N)=O)CCN(c2ncnc3c2nc(-c2ccccc2Cl)n3-c2ccc(Cl)cc2)CC1` [OTENABANT], the “Cell Viability” value is recorded as 98.0011%.

With `O=C(NCC(=O)N1CC[C@H](N[C@H]2CC[C@@](O)(c3ccc(-c4ncccn4)cn3)CC2)C1)c1cccc(C(F)(F)F)c1` [PF-4136309], the “Cell Viability” value stood at 99.5458%.

As to `c1cc(CN2CCCNCCNCCCNCC2)ccc1CN1CCCNCCNCCCNCC1` [PLERIXAFOR], the “Cell Viability” value was found to be 104.498%.

In the case of `CC(C)Cc1ccc([C@@H](C)C(=O)NS(C)(=O)=O)cc1` [REPARIXIN], the “Cell Viability” value is 98.0011% and 100.432%.

With `Cc1c(C(=O)NN2CCCCC2)nn(-c2ccc(Cl)cc2Cl)c1-c1ccc(Cl)cc1` [RIMONABANT], the “Cell Viability” value came to 98.0011%.

For the compound `C[C@@H](OC[C@@]1(c2ccccc2)CC[C@]2(CCC(=O)N2)CN1)c1cc(C(F)(F)F)cc(C(F)(F)F)c1` [ROLAPITANT], the “Cell Viability” value came to 98.0011%.

In the case of `CC(C)N(CCCCOCC(=O)NS(C)(=O)=O)c1cnc(-c2ccccc2)c(-c2ccccc2)n1` [SELEXIPAG], the “Cell Viability” value is on record as 98.0011%.

On to `Cc1ccc2c(c1CCC(=O)O)CC[C@@H](NS(=O)(=O)c1ccc(Cl)cc1)C2` [TERUTROBAN], for which the “Cell Viability” value came to 98.0011%.

Regarding `Cl.Clc1ccc2nsnc2c1NC1=NCCN1` [TIZANIDINE HYDROCHLORIDE], the “Cell Viability” value was 98.0011%.

`Cc1ccc(/C(=C\CN2CCCC2)c2ccccn2)cc1` [TRIPROLIDINE]: the “Cell Viability” value came out at 98.0011%.

As to `COC[C@@H](c1ccc(C(F)(F)F)cc1)N1CCN(C2(C)CCN(C(=O)c3c(C)ncnc3C)CC2)C[C@@H]1C.O=C(O)/C=C\C(=O)O` [VICRIVIROC MALEATE], the “Cell Viability” value was 101.876%.
